{
  "source": "patent US12409238B2",
  "about": "“Silicone-based dyes with short wavelength infrared absorption and emission and methods for making and using the same” (UNIVERSITY OF MISSISSIPPI, priority 2021, dated 2025)",
  "key": {"[1]": {"test": "Emission studies (SWIR emission spectra, 980 nm excitation)", "format": "physicochemical", "conditions": "organic solvent (dichloromethane) / water when encapsulated in a polymer; SiRos1 in DCM (FIG. 13)", "procedure": "0.1 mg of silicone-based compound was combined with 10 mg DSPE-mPEG2000 (1% loading of dye by mass) in 3 mL of dichloromethane (DCM) in a 10 mL scintillation vial. The solution was vortexed for 10 seconds to homogenously mix the components. DCM was evaporated from the solution on a rotary evaporator at 50° C. until the solution forms a thin paste around the vial. Subsequently, the vial was placed on high vacuum for a half an hour to remove any residual DCM. Next, 3 mL of D2O was added and the resulting mixture was sonicated for one minute with gentle swirling to dissolve the polymer and dye together. The mixture was syringe filtered (0.45 μm) to remove any unencapsulated compound.\nThe emission spectra of the dyes were recorded from 1000-2500 nm using a liquid nitrogen cooled InAs fluorimeter from Horiba. A 980 nm DPSS (diode pumped solid state laser, max power 2 W) laser was used as the excitation source and the chopper signal was split from the chopper control to the lock-in-amplifier as a reference signal and the trigger signal to the laser controller. All studies were performed at 1e-5 M in DCM or 0.1 mg of dye per 3 mL D2O solution (for D2O, the dyes were solubilized in a commercially available DSPE-mPEG2000 nanoparticle, preparation previously supplied)."}, "[2]": {"test": "Stability study: half-life in neutral aqueous solutions", "format": "physicochemical", "conditions": "xylyl substituted derivatives", "from_the_text": "The introduction of the meta-xylyl ring on the silicon-rosindolizine bridge as found to impart substantial stability compared to a tolyl ring on the silicon-rosindolizine bride. […] This increased stability is critically important to some biological imaging applications. The meta-xylyl substituted derivative retain very similar spectral properties to the tolyl derivatives with absorption and emission observed in the SWIR region. […] Application in night vision, solar cells, and photodetectors are also possible with materials absorbing in this spectral region. […] The quantum yield is near 0.01-0.05% in these environments with peak emission of SiRos1 at ˜1350 nm (FIG. 13) and peak emission of SiRos2>1550 nm."}},
  "data": [
    {"molecule": "CCCCC(CC)C[Si]1(CC(CC)CCCC)c2cc(-c3c(-c4ccccc4)c(C)c4ccccn34)ccc2C(c2c(C)cccc2C)=c2cc/c(=C3\\C(c4ccccc4)=C(C)c4cccc[n+]43)cc21.[O-][Cl+3]([O-])([O-])[O-]", "note": "(centres unmarked) [SiRos1, (Z)-3-(10-(2,6-dimethylphenyl)-5,5-bis(2-ethylhexyl)-7-(1-methyl-2-phenylindolizin-3-yl)dibenzo[b,e]silin-3(5H)-ylidene)-1-methyl-2-phenyl-3H-indolizin-4-ium perchlorate]", "values": [
      {"measurement": "peak emission", "setting": "[1]", "result": "~1350", "unit": "nm"},
      {"measurement": "half-life", "setting": "[2]", "result": "longer than a week"}
    ]},
    {"molecule": "CCCCC(CC)C[Si]1(CC(CC)CCCC)c2cc(-c3c(-c4ccccc4)c(-c4ccc(N(C)C)cc4)c4cc(-c5ccc(N(C)C)cc5)ccn34)ccc2C(c2c(C)cccc2C)=c2cc/c(=C3\\C(c4ccccc4)=C(c4ccc(N(C)C)cc4)c4cc(-c5ccc(N(C)C)cc5)cc[n+]43)cc21.[O-][Cl+3]([O-])([O-])[O-]", "note": "(centres unmarked) [SiRos3, (Z)-3-(7-(1,7-bis(4-(dimethylamino)phenyl)-2-phenylindolizin-3-yl)-10-(2,6-dimethylphenyl)-5,5-bis(2-ethylhexyl)dibenzo[b,e]silin-3(5H)-ylidene)-1,7-bis(4-(dimethylamino)phenyl)-2-phenyl-3H-indolizin-4-ium perchlorate]", "values": [
      {"measurement": "half-life", "setting": "[2]", "result": "longer than a week"}
    ]},
    {"molecule": "CCCCC(CC)CC1=C(c2ccccc2)/C(=c2\\ccc3c(c2)[Si](CC(CC)CCCC)(CC(CC)CCCC)c2cc(-c4c(-c5ccccc5)c(CC(CC)CCCC)c5cc(-c6ccc(N(C)C)cc6)ccn45)ccc2C=3c2c(C)cccc2C)[n+]2ccc(-c3ccc(N(C)C)cc3)cc21.[O-][Cl+3]([O-])([O-])[O-]", "note": "(centres unmarked) [SiRos2, (Z)-7-(4-(dimethylamino)phenyl)-3-(7-(7-(4-(dimethylamino)phenyl)-1-(2-ethylhexyl)-2-phenylindolizin-3-yl)-10-(2,6-dimethylphenyl)-5,5-bis(2-ethylhexyl)dibenzo[b,e]silin-3(5H)-ylidene)-1-(2-ethylhexyl)-2-phenyl-3H-indolizin-4-ium perchlorate]", "values": [
      {"measurement": "peak emission", "setting": "[1]", "result": "> 1550", "unit": "nm"},
      {"measurement": "half-life", "setting": "[2]", "result": "longer than a week"}
    ]}
  ]
}
